Source: patent US7776558B2, “Human G protein-coupled receptor and modulators thereof for the treatment of cell death-related disorders” (Arena Pharmaceuticals, Inc., priority 2003, dated 2010)
“And” between values parts separate entries of the source, which are not always exact repeats. Equal values may be shown once. “Also recorded” adds a separate entry of the source. Read-outs that look alike come from different tables or passages of the source. Where no end group is shown, it is not given here.

Tests used:
FPRL2 = target: T1, FPRL2 (Homo sapiens, UniProt P25089); assay: Pertussis toxin sensitivity of signaling, adenylate cyclase assay in HEK293 cells; assay type: cell-based; parameters: expressed in transfected cells; details: pre-treated 18 to 20 hrs with 50 ng/ml pertussis toxin; 5 μM forskolin; FIG. 7
T1 sequence (P25089 1-353): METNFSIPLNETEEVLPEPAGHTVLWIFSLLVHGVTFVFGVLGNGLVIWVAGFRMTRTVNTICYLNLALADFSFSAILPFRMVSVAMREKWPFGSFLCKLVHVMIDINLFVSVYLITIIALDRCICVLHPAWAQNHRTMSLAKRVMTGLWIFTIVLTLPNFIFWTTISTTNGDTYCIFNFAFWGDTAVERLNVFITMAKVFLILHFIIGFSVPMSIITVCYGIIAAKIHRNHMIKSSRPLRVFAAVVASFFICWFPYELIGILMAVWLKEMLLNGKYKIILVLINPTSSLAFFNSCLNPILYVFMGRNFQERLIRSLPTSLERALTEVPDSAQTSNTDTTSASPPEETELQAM
Experimental: The pertussis toxin sensitivity of Compound 1 signalling through human FPRL2 was determined similarly.
Samples were then assessed for cAMP levels as described in Example 4, supra.

human FPRL2 = target: T2, human FPRL2 (Homo sapiens, UniProt P25089); assay: [35S]GTPγS binding assay, membranes of transiently transfected CHO cells; assay type: biochemical; parameters: expressed in transfected cells; host or cells: CHO-K1 cells, transient, pCMV; plasma membranes
T2 sequence (P25089 with tags, fused parts or gaps): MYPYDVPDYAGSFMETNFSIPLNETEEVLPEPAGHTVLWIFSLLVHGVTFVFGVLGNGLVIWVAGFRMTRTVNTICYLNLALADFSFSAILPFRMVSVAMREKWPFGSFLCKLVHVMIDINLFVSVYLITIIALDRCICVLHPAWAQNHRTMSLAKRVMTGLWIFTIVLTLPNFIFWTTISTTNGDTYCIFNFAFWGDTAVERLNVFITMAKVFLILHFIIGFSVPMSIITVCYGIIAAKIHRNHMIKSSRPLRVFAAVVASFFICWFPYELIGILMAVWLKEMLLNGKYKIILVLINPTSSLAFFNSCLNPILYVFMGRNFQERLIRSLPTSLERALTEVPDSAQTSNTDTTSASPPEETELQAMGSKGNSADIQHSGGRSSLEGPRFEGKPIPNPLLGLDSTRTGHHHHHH
Experimental: The plasmids used were HA/V5 doubled tagged endogenous FPRL2 in pCMV, HA/V5 double-tagged endogenous FPRL1 in pCMV, HAN5 double-tagged endogenous FPR in pCMV, and pCMV alone (See, Example 1). Transient transfections were carried out on CHO-K1 cells. To a 15 cm dish of confluent cells, 12 μg of plasmid DNA and 60 μl Lipofectamine (Invitrogen, Carlsbad, Calif.) were added to each plate. Twenty-four hours post-infection, plasma membranes were isolated as described below. Assays were then run as described below.
“Membrane Scrape Buffer” consists of 20 mM HEPES and 10 mM EDTA, pH 7.4; “Membrane Wash Buffer” consists of […] and 0.1 mM EDTA, pH 7.4; “Binding. Buffer” consists of 20 mM HEPES, 100 mM NaCl, and 10 mM MgCl2, pH 7.4.
All materials were kept on ice throughout the procedure. Firstly, the media was aspirated from a confluent monolayer of transfected cells, followed by rinse with 10 ml cold PBS, followed by aspiration. Thereafter, 10 ml of Membrane Scrape Buffer was added to scrape cells; this was followed by transfer of cellular extract into 50 ml centrifuge tubes (centrifuged at 20,000 rpm for 17 minutes at 4° C.). Thereafter, the supernatant was aspirated and the pellet was resuspended in 30 ml Membrane Wash Buffer followed by centrifuging at 20,000 rpm for 17 minutes at 4° C. The supernatant was then aspirated and the pellet resuspended in Binding Buffer. This was then homogenized using a Brinkman Polytron™ homogenizer (15-20 second bursts until the all material is in suspension). This is referred to herein as “Membrane Protein”. A protein determination (Bradford Protein Assay) was carried out, and the protein concentration of the Membrane Protein was adjusted to 1.0 mg/ml with cold Binding Buffer for each of the experimental samples (FPRL2, FPRL1, FPR, pCMV).
GDP Buffer consisted of 37.5 ml Binding Buffer and 2 mg GDP (Sigma, cat. no. G-7127), followed by a series of dilutions in Binding Buffer to obtain 0.2 μM GDP (final concentration of GDP in each well was 0.1 μM GDP); each well comprising a candidate compound, has a final volume of 200 μl consisting of 100 μl GDP Buffer (final concentration, 0.1 μM GDP), 50 μl Membrane Protein in Binding Buffer, and 50 μl [35S]GTPγS (0.6 nM) in Binding Buffer (2.5 μl [35S]GTPγS per 10 ml Binding Buffer).
First, 100 μl GDP Buffer was added to each well of a Wallac Scintistrip™ (Wallac). […] Thereafter, 50 μl of Membrane Protein was added to each well (a control well comprising membranes without the GPCR Protein was also utilized), and pre-incubated for 5-10 minutes at room temperature. Thereafter, 50 μl of [^35S]GTPγS (0.6 nM) in Binding Buffer was added to each well, followed by incubation on a shaker for 60 minutes at room temperature (again, in this example, plates were covered with foil). The assay was then stopped by spinning of the plates at 4000 RPM for 15 minutes at 22° C. The plates were then aspirated with an 8 channel manifold and sealed with plate covers. The plates were then read on a Wallac 1450 using setting “Prot. #37” (as per manufacturer instructions).

[1] = FIG. 3 panel A, transiently transfected CHO cells, read-out: EC50 at FPRL2, promoted [35S]GTPγS binding
[2] = read-out: EC50 in [35S]GTPγS binding assay

CC[C@H](C)[C@H](NC(=O)[C@H](CCC(=O)O)NC(=O)[C@H](CO)NC(=O)[C@@H](NC(=O)[C@H](CC(C)C)NC(=O)[C@H](CC(C)C)NC(=O)[C@H](CC(C)C)NC(=O)[C@H](CC(C)C)NC(=O)[C@H](CS)NC(=O)[C@H](CO)NC(=O)[C@H](Cc1ccccc1)NC(=O)CNC(=O)[C@H](CCCNC(=N)N)NC(=O)[C@@H]1CCCN1C(=O)[C@H](C)NC(=O)[C@@H](N)CCSC)[C@@H](C)O)C(=O)N[C@@H](CC(=O)O)C(=O)N[C@@H](CC(C)C)C(=O)N1CCC[C@H]1C(=O)N[C@H](C(=O)N[C@@H](CCCCN)C(=O)N[C@@H](CCCNC(=N)N)C(=O)N[C@@H](CCCNC(=N)N)C(=O)N[C@@H](C)C(=O)O)C(C)C [Humanin]
Pertussis toxin sensitivity of the inhibition of cAMP through FPRL2 (FPRL2): pertussis sensitive
EC75 in [35S]GTPγS binding assay (human FPRL2): about 1.5 μM
EC50 (human FPRL2; [1]): ~320 nM
EC50 (human FPRL2; [2]): ~320 nM and ~300 nM

CC(C)c1ccc2c(c1)CCC1C(C)(C(N)=O)CCCC21C (centres unmarked) [Compound 1, 7-Isopropyl-1,4a-dimethyl-1,2,3,4,4a,9,10,10a-octahydro-phenanthrene-1-carboxylic acid amide]
Pertussis toxin sensitivity of the inhibition of cAMP through FPRL2 (FPRL2): pertussis sensitive
EC75 in [35S]GTPγS binding assay (human FPRL2): about 15 μM
Activity at human FPRL2, FPRL1 and FPR (human FPRL2; by [35S]GTPγS binding assay and by melanophore assay, FIG. 5): robust and selective agonist of FPRL2
EC50 (human FPRL2; [2]): ~2800 nM

MAPRGFSCLLLLTGEIDLPVKRRA [[Gly14]-Humanin]
EC50 (human FPRL2; [1]): ~72 nM
EC50 values at FPRL2 relative to the corresponding values at FPRL1 (human FPRL2; FPRL2 versus FPRL1): more than an order of magnitude lower
Agonist activity and selectivity for FPRL2 (human FPRL2; compared with FPRL1 and FPR, FIG. 3): selective and robust agonists for FPRL2; also recorded: robust and selective agonists for FPRL2
